# pEC50: −log10 of the molar value.
# Biological target: human SSTR2 (Homo sapiens (Human), UniProt P30874)
# Test: Human SSTR2 intracellular cAMP functional assay for agonists (HTRF)
# Assay type: cell-based
# Conditions: not given
# How it was run: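 Cells bearing human SSTR2 exposed to compound for 20 minutes at 37 °C; after lysis, cAMP measured by time-resolved fluorescence (HTRF) and converted via a standard curve. EC50 calculated from cAMP versus compound concentration.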
# Sequence of human SSTR2 (P30874 whole entry): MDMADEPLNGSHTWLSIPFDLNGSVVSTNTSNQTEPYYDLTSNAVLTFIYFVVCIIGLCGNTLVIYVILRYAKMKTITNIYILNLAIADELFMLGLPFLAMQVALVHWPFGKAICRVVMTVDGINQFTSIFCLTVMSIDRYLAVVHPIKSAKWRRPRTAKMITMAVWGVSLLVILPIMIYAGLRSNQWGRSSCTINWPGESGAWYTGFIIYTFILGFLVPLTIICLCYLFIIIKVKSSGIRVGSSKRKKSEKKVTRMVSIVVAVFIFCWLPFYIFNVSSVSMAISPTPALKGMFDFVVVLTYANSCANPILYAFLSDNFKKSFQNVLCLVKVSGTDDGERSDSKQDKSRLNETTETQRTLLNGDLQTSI
row,Structure (SMILES),pEC50
1,"CCC(CO)NCC1CN(c2c(-c3cc(C)cc(F)c3)cnc3ccc(-c4cc(F)cc(C#N)c4O)cc23)C1 (centres unmarked) [2-41, 5-fluoro-3-[3-(3-fluoro-5-methylphenyl)-4-(3-{[(1-hydroxybutan-2-yl)amino]methyl}azetidin-1-yl)quinolin-6-yl]-2-hydroxybenzonitrile]",7.00 to 8.00
2,"CCN(CCO)CC1CN(c2c(-c3cc(C)cc(F)c3)cnc3ccc(-c4cc(F)cc(C#N)c4O)cc23)C1 [2-44, 3-[4-(3-{[ethyl(2-hydroxyethyl)amino]methyl}azetidin-1-yl)-3-(3-fluoro-5-methylphenyl)quinolin-6-yl]-5-fluoro-2-hydroxybenzonitrile]",6.00 to 7.00
3,"Cc1cc(F)cc(-c2cnc3ccc(-c4cc(F)cc(C#N)c4O)cc3c2N2CC(CNC3CCOC3)C2)c1 (centres unmarked) [2-45, 5-fluoro-3-[3-(3-fluoro-5-methylphenyl)-4-(3-{[(oxolan-3-yl)amino]methyl}azetidin-1-yl)quinolin-6-yl]-2-hydroxybenzonitrile]",7.00 to 8.00
4,"Cc1cc(F)cc(-c2cnc3ccc(-c4cc(F)cc(C#N)c4O)cc3c2N2CC(CN3CCC(F)(F)C3)C2)c1 [2-47, 3-(4-{3-[(3,3-difluoropyrrolidin-1-yl)methyl]azetidin-1-yl}-3-(3-fluoro-5-methylphenyl)quinolin-6-yl)-5-fluoro-2-hydroxybenzonitrile]",6.00 to 7.00
5,"Cc1cc(F)cc(-c2cnc3ccc(-c4cc(F)cc(C#N)c4O)cc3c2N2CC(CN3CCCCC3)C2)c1 [2-50, 5-fluoro-3-[3-(3-fluoro-5-methylphenyl)-4-[3-(piperidin-1-ylmethyl)azetidin-1-yl]quinolin-6-yl]-2-hydroxybenzonitrile]",7.00 to 8.00
6,"Cc1cc(F)cc(-c2cnc3ccc(-c4cc(F)cc(C#N)c4O)cc3c2N2CC(CNCC(C)O)C2)c1 (centres unmarked) [2-51, 5-fluoro-3-[3-(3-fluoro-5-methylphenyl)-4-(3-{[(2-hydroxypropyl)amino]methyl}azetidin-1-yl)quinolin-6-yl]-2-hydroxybenzonitrile]",7.00 to 8.00
7,"CCCNCC1CN(c2c(-c3cc(C)cc(F)c3)cnc3ccc(-c4cc(F)c(O)c(F)c4)cc23)C1 [2-52, 2,6-difluoro-4-[3-(3-fluoro-5-methylphenyl)-4-{3-[(propylamino)methyl]azetidin-1-yl}quinolin-6-yl]phenol]",7.00 to 8.00
8,"N#Cc1cccc(-c2ccc3ncc(-c4cc(F)cc(F)c4)c(N4CCC(N)CC4)c3c2)c1OCC(=O)O [2-56, 2-{2-[4-(4-aminopiperidin-1-yl)-3-(3,5-difluorophenyl)quinolin-6-yl]-6-cyanophenoxy}acetic acid]",7.00 to 8.00
9,"N#Cc1cccc(-c2ccc3ncc(-c4cc(F)cc(F)c4)c(N4CCC(N)CC4)c3c2)c1OCCCC(=O)O [2-57, 4-{2-[4-(4-aminopiperidin-1-yl)-3-(3,5-difluorophenyl)quinolin-6-yl]-6-cyanophenoxy}butanoic acid]",7.00 to 8.00
10,"CO[C@H]1CN(c2c(-c3cc(F)cc(F)c3)cnc3ccc(-c4cccc(C#N)c4O)cc23)CC[C@H]1N [2-61, 3-{4-[(3S,4R)-4-amino-3-methoxypiperidin-1-yl]-3-(3,5-difluorophenyl)quinolin-6-yl}-2-hydroxybenzonitrile]",7.00 to 8.00
11,"CO[C@@H]1CN(c2c(-c3cc(F)cc(F)c3)cnc3ccc(-c4cccc(C#N)c4O)cc23)CC[C@@H]1N [2-66, 3-{4-[(3R,4S)-4-amino-3-methoxypiperidin-1-yl]-3-(3,5-difluorophenyl)quinolin-6-yl}-2-hydroxybenzonitrile]",7.00 to 8.00
12,"N#Cc1cccc(-c2ccc3ncc(-c4cc(F)cc(OC5COC5)c4)c(N4CCC(N)CC4)c3c2)c1O [2-69, 3-[4-(4-aminopiperidin-1-yl)-3-[3-fluoro-5-(oxetan-3-yloxy)phenyl]quinolin-6-yl]-2-hydroxybenzonitrile]",7.00 to 8.00
13,"CO/N=C/c1cc(F)cc(-c2cnc3ccc(-c4cccc(C#N)c4O)cc3c2N2CCC(N)CC2)c1 [2-70, 3-[4-(4-aminopiperidin-1-yl)-3-{3-fluoro-5-[(1E)-(methoxyimino)methyl]phenyl}quinolin-6-yl]-2-hydroxybenzonitrile]",7.00 to 8.00
14,"N#Cc1cccc(-c2ccc3ncc(-c4cc(F)cc(CN5CC(F)(F)C5)c4)c(N4CCC(N)CC4)c3c2)c1O [2-71, 3-[4-(4-aminopiperidin-1-yl)-3-{3-[(3,3-difluoroazetidin-1-yl)methyl]-5-fluorophenyl}quinolin-6-yl]-2-hydroxybenzonitrile]",6.00 to 7.00
15,"N#Cc1cccc(-c2ccc3ncc(-c4cc(F)cc(F)c4)c(N4CCC(N)CC4)c3c2)c1OC1COC1 [2-73, 3-[4-(4-aminopiperidin-1-yl)-3-(3,5-difluorophenyl)quinolin-6-yl]-2-(oxetan-3-yloxy)benzonitrile]",7.00 to 8.00
16,"NC1CCN(c2c(-c3cc(F)cc(F)c3)cnc3ccc(-c4cncc(F)c4OC4COC4)cc23)CC1 [2-74, 1-[3-(3,5-difluorophenyl)-6-[5-fluoro-4-(oxetan-3-yloxy)pyridin-3-yl]quinolin-4-yl]piperidin-4-amine]",6.00 to 7.00
17,"NC(=O)c1cnc(N2CCC2)c(-c2ccc3ncc(-c4cc(F)cc(F)c4)c(N4CCC(N)CC4)c3c2)c1 [2-76, 5-[4-(4-aminopiperidin-1-yl)-3-(3,5-difluorophenyl)quinolin-6-yl]-6-(azetidin-1-yl)pyridine-3-carboxamide]",6.00 to 7.00

# Same assay, conditions: CHO-K1 cells stably expressing human SSTR2; NKH477-stimulated cAMP; read-out: EC50 (inhibition of cAMP activities via human SST2R)
row,Structure (SMILES),pEC50
1,"CCCNCC1CN(c2c(-c3cc(C)cc(F)c3)cnc3ccc(-c4cccc(C#N)c4O)cc23)C1 [2-42, 3-[3-(3-fluoro-5-methylphenyl)-4-{3-[(propylamino)methyl]azetidin-1-yl}quinolin-6-yl]-2-hydroxybenzonitrile]",> 8.00
2,"Cc1cc(F)cc(-c2cnc3ccc(-c4cc(F)cc(C#N)c4O)cc3c2N2CC(CNCCO)C2)c1 [2-43, 5-fluoro-3-[3-(3-fluoro-5-methylphenyl)-4-(3-{[(2-hydroxyethyl)amino]methyl}azetidin-1-yl)quinolin-6-yl]-2-hydroxybenzonitrile]",> 8.00
3,"CCCNCC1CN(c2c(-c3cc(C)cc(F)c3)cnc3ccc(-c4c(F)ccc(F)c4O)cc23)C1 [2-46, 3,6-difluoro-2-[3-(3-fluoro-5-methylphenyl)-4-{3-[(propylamino)methyl]azetidin-1-yl}quinolin-6-yl]phenol]",> 8.00
4,"Cc1cc(F)cc(-c2cnc3ccc(-c4cc(F)cc(C#N)c4O)cc3c2N2CC(CN3CC[C@@H](F)C3)C2)c1 [2-48, 5-fluoro-3-[3-(3-fluoro-5-methylphenyl)-4-(3-{[(3R)-3-fluoropyrrolidin-1-yl]methyl}azetidin-1-yl)quinolin-6-yl]-2-hydroxybenzonitrile]",> 8.00
5,"Cc1cc(F)cc(-c2cnc3ccc(-c4cc(F)cc(C#N)c4O)cc3c2N2CC(CN3CC[C@H](F)C3)C2)c1 [2-49, 5-fluoro-3-[3-(3-fluoro-5-methylphenyl)-4-(3-{[(3 S)-3-fluoropyrrolidin-1-yl]methyl}azetidin-1-yl)quinolin-6-yl]-2-hydroxybenzonitrile]",> 8.00
6,"COCOc1c(C#N)cc(F)cc1-c1ccc2ncc(-c3cc(C)cc(F)c3)c(N3CC(CNCCCO)C3)c2c1 [2-53, 5-fluoro-3-[3-(3-fluoro-5-methylphenyl)-4-(3-{[(3-hydroxypropyl)amino]methyl}azetidin-1-yl)quinolin-6-yl]-2-(methoxymethoxy)benzonitrile]",> 8.00
7,"Cc1cc(F)cc(-c2cnc3ccc(-c4cc(F)cc(C#N)c4O)cc3c2N2CC(CNCCCO)C2)c1 [2-54, 5-fluoro-3-[3-(3-fluoro-5-methylphenyl)-4-(3-{[(3-hydroxypropyl)amino]methyl}azetidin-1-yl)quinolin-6-yl]-2-hydroxybenzonitrile]",> 8.00
8,"CCCNCC1CN(c2c(-c3cc(C)cc(F)c3)cnc3ccc(-c4cc(F)c5[nH]c(=O)[nH]c5c4)cc23)C1 [2-55, 4-fluoro-6-[3-(3-fluoro-5-methylphenyl)-4-{3-[(propylamino)methyl]azetidin-1-yl}quinolin-6-yl]-2,3-dihydro-1H-1,3-benzodiazol-2-one]",> 8.00
9,"N#Cc1cccc(-c2ccc3ncc(-c4cc(F)cc(F)c4)c(N4CC[C@@H](N)[C@H](F)C4)c3c2)c1O [2-59, 3-{4-[(3R,4R)-4-amino-3-fluoropiperidin-1-yl]-3-(3,5-difluorophenyl)quinolin-6-yl}-2-hydroxybenzonitrile]",> 8.00
10,"COCOc1c(C#N)cccc1-c1ccc2ncc(-c3cc(F)cc(F)c3)c(N3CC[C@H](N)[C@H](OC)C3)c2c1 [2-62, 3-{4-[(3R,4S)-4-amino-3-methoxypiperidin-1-yl]-3-(3,5-difluorophenyl)quinolin-6-yl}-2-(methoxymethoxy)benzonitrile]",> 8.00
11,"CC(=O)OCCOc1c(C#N)cccc1-c1ccc2ncc(-c3cc(F)cc(F)c3)c(N3CCC(N)CC3)c2c1 [2-64, 2-{2-[4-(4-aminopiperidin-1-yl)-3-(3,5-difluorophenyl)quinolin-6-yl]-6-cyanophenoxy}ethyl acetate]",> 8.00
12,"N#Cc1cccc(-c2ccc3ncc(-c4cc(F)cc(F)c4)c(N4CCC(N)CC4)c3c2)c1OCCO [2-65, 3-[4-(4-aminopiperidin-1-yl)-3-(3,5-difluorophenyl)quinolin-6-yl]-2-(2-hydroxyethoxy)benzonitrile]",> 8.00
13,"NC(=O)c1cccc(-c2ccc3ncc(-c4cc(F)cc(F)c4)c(N4CCC(N)CC4)c3c2)c1OC(CO)CO [2-67, 3-[4-(4-aminopiperidin-1-yl)-3-(3,5-difluorophenyl)quinolin-6-yl]-2-[(1,3-dihydroxypropan-2-yl)oxy]benzamide]",> 8.00
14,"COCCOc1c(C#N)cccc1-c1ccc2ncc(-c3cc(F)cc(F)c3)c(N3CCC(N)CC3)c2c1 [2-72, 3-[4-(4-aminopiperidin-1-yl)-3-(3,5-difluorophenyl)quinolin-6-yl]-2-(2-methoxyethoxy)benzonitrile]",> 8.00
15,"N#Cc1cnc(N2CCC2)c(-c2ccc3ncc(-c4cc(F)cc(F)c4)c(N4CCC(N)CC4)c3c2)c1 [2-75, 5-[4-(4-aminopiperidin-1-yl)-3-(3,5-difluorophenyl)quinolin-6-yl]-6-(azetidin-1-yl)pyridine-3-carbonitrile]",> 8.00

# Source: patent US10351547B2, “Somatostatin modulators and uses thereof” (priority 2016, dated 2019)
